Read-outs that look alike come from different tables or passages of the source. Bounds are passed on as bounds.

Data on 16 compounds can be found in patent US8268827B2, “Pyridazinone derivatives as PARP inhibitors” (Istituto di Ricerche di Biologia Molecolare P. Angeletti …, priority 2007, dated 2012).

The target of assay [1] is T1, PARP-1 (Homo sapiens, UniProt P09874).
T1 construct: purchased Trevigen 4668-500-01
The experiment in a line: PARP-1 TCA assay (inhibitory activity on human PARP-1). The assay is classed as biochemical. To be noted: human PARP-1, TCA assay. As for the experimental part: Inhibitory Activity on Human PARP-1
The study was designed to determine the potency of compounds for inhibiting poly(ADP-ribosylation) by hPARP1 upon presentation of a nicked DNA (i.e. Activated Calf Thymus). The IC50 was determined in a TCA assay looking at the incorporation of [^3H]-NAD into the growing Poly-ADP-ribose (PAR) polymers and detection of the radioactivity incorporated in a polymer by scintillation counting.
A 96 wells polypropylene microplate was prepared with serial dilutions of compounds (10 point over a 0.1 nM-50 nM concentration range 5% DMSO, 5 uL) or 5% DMSO. The enzymatic reaction was conducted in the presence of 25 mM Tris-HCl pH8.0, 1 mM MgCl2, 50 mM KCl, 1 mM Spermine, 0.01% Nonidet P-40, 1 mM DTT, 1 ug/ml activated Calf Thymus DNA (Amersham Biosciences 27-4575) and 1 nM of human PARP-1 enzyme (Trevigen 4668-500-01). The reaction was initiated by adding 1 ug/ml Activated Calf Thymus DNA (Amersham Biosciences 27-4575), 0.4 ul (2.2×10^5DPM) of [^3H]-NAD (250uCi/ml, Perkin Elmer NET-443H) and 1.5 uM NAD (Sigma #N-1511) in a total reaction volume of 50 ul. After 2 hours incubation at room temperature, the reaction was stopped by the addition of TCA (50 uL, 20%) and NaPPi (20 mM) and incubated for 10 min over ice. The resulting precipitate was filtered on Unifilter GF/B microplate (Perkin Elmer) and washed four times with 2.5% TCA using Harvester Filtermate 196 (Perkin Elmer). After addition of 50 ul of Microscint 20 (Perkin Elmer) the amount of radioactivity incorporated into the PARP polymers was read for each well on Perkin Elmer Top Count. IC50 was calculated using 4P logistic fitting with ADA software based on the residual enzyme activity in the presence of increasing concentrations of compounds.

Assay [2] deals with BRCA-1 silenced HeLa cells (HeLa shBRCA1-GFP). The assay can be described thus: Proliferation assay in BRCA-1 silenced HeLa cells. The assay is classed as cell-based. To be noted: Homo sapiens; for inhibition at 5 µM: read-out: % inh @ 5 uM (BRCA1-). The method, boiled down:
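Antiproliferative effect was read by Celltiter Blue fluorescence after 168 h of compound treatment at 37° C., 5% CO2. Cells were matched HeLa pairs, BRCA1-shRNA (>80% silenced, GFP) versus non-shRNA vector control, in DMEM with 10% FCS.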

For assay [3], the system named is ischemia and reperfusion of the heart. To be noted: rabbits, cited from earlier work.
Assay [4] concerns the target T1, PARP-1. The assay can be described thus: PARP-1 SPA assay. The assay is classed as biochemical. Summed up: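 PARP-1 reaction in Tris pH 8 buffer with MgCl2, spermine, KCl, activated calf thymus DNA and a mix of [3H]-NAD, NAD and biotinylated NAD, 2 h at RT. Stopped with EDTA/streptavidin SPA beads and poly(ADP-ribose) incorporation counted by scintillation.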
The mark [5] stands for this setting: BRCA-1 silenced HeLa cells, read-out: BRCA1- CC50.
Where [6] appears, read: BRCA1 silenced HeLa cells, 168 hours, read-out: CC50 in the BRCA1 silenced HeLa cells.

T1 sequence (P09874 whole entry): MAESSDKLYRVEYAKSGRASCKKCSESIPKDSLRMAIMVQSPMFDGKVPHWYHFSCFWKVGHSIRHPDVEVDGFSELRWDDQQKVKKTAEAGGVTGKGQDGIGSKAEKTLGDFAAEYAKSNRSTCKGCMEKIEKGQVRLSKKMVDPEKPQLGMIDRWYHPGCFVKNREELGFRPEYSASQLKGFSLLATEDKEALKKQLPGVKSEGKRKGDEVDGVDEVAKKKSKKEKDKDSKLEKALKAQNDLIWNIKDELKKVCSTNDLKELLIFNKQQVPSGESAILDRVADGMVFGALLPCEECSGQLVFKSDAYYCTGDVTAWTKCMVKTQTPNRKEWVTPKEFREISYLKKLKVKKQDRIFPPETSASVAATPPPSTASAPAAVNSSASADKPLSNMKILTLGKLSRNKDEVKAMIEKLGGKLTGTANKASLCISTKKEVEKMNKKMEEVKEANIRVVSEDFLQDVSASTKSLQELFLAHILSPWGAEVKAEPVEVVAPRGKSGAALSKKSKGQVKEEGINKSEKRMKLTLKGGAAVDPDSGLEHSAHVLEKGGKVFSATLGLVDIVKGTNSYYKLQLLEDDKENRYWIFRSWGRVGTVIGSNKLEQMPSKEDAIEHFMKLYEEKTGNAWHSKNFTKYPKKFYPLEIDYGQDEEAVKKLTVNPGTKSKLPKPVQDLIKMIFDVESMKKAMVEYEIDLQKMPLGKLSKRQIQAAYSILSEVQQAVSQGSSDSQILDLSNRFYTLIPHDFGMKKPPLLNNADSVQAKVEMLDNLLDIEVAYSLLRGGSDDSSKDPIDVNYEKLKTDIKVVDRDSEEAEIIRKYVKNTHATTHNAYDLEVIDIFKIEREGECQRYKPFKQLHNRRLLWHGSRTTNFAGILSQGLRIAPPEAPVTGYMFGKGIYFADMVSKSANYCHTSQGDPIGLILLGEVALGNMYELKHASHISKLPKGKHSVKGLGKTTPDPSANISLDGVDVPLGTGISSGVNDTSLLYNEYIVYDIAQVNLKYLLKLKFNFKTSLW

A word on the IC50: it is the point on the concentration scale where inhibition reaches its midpoint. High values mean weaker potency in that assay, low ones greater potency in that assay. As to `Cc1c(Cc2ccc(F)c(C(=O)N3CCN(c4ccc(F)cc4)CC3)c2)n[nH]c(=O)c1C`, at PARP-1 [1], the IC50 is 20 nM. For the same compound, the inhibition at 5 µM in assay [2] (BRCA-1 silenced HeLa cells) is 52%.
For `Cc1c(Cc2ccc(F)c(C(=O)N3CC=C(c4ccc(F)cc4)CC3)c2)n[nH]c(=O)c1C`, in that order: 20 nM and 45%.
The CC50 is the concentration giving 50% cytotoxicity. With `Cc1c(Cc2ccc(F)c(C(=O)N3CCN(C4CCCCC4)CC3)c2)n[nH]c(=O)c1C`, at PARP-1 [1], it took 7.4 nM to reach half-maximal inhibition (IC50). Further, in assay [2] (setting [5]), the CC50 came to 400 nM.
In the case of `Oc1cccc2c(O)nccc12` [1,5-dihydroxyisoquinoline], the “reduction in infarct size” value in assay [3] (single injection 1 mg/kg) is given as 38-48%.
With `NC(=O)c1cccc(N)c1` [3-amino-benzamide], in assay [3] (single injection 10 mg/kg, one minute before occlusion or one minute before reperfusion), the “reduction in infarct size in the heart” value is listed as 32-42%.
With `C[C@H]1CN(C(=O)c2cc(Cc3cc(C(F)(F)F)c(=O)[nH]n3)ccc2F)CC(=O)N1C1CCCC1` [Example 152, 6-(3-{[(3S)-4-cyclopentyl-3-methyl-5-oxopiperazin-1-yl]carbonyl}-4-fluorobenzyl)-4-(trifluoromethyl)pyridazin-3(2H)-one], in assay [2] (setting [6]), the CC50 was less than 5000 nM. The compound further gave an IC50 at PARP-1 [4] of 5 to 25 nM.
For `COCCN1CCN(C(=O)c2cc(Cc3n[nH]c(=O)c(C)c3C)ccc2F)CC1=O` [Example 170, 6-(4-Fluoro-3-{[4-(2-methoxyethyl)-3-oxopiperazin-1-yl]carbonyl}benzyl)-4,5-dimethylpyridazin-3(2H)-one], in that order: less than 5000 nM and 5 to 25 nM.
`CCOCCN1CCN(C(=O)c2cc(Cc3n[nH]c(=O)c(C)c3C)ccc2F)CC1=O` [Example 171, 6-(3-{[4-(2-Ethoxyethyl)-3-oxopiperazin-1-yl]carbonyl}-4-fluorobenzyl)-4,5-dimethylpyridazin-3(2H)-one]: in assay [2] (setting [6]), the CC50 is less than 5000 nM. At PARP-1 [4], this compound gave an IC50 of less than 5 nM.
For `Cc1c(Cc2ccc(F)c(C(=O)N3CCN(CCOC(C)C)C(=O)C3)c2)n[nH]c(=O)c1C` [Example 172, 6-(4-Fluoro-3-{[4-(2-isopropoxyethyl)-3-oxopiperazin-1-yl]carbonyl}benzyl)-4,5-dimethylpyridazin-3(2H)-one], the CC50 in assay [2] (setting [6]) was less than 5000 nM. Further, the IC50 against PARP-1 [4] fell in the range of 5 to 25 nM.
As to `Cc1c(Cc2ccc(F)c(C(=O)N3CC(=O)N(C4CCC4)[C@@H](C)C3)c2)n[nH]c(=O)c1C` [Example 176, 6-(3-{[(3S)-4-Cyclobutyl-3-methyl-5-oxopiperazin-1-yl]carbonyl}-4-fluorobenzyl)-4,5-dimethylpyridazin-3(2H)-one], in assay [2] (setting [6]), the CC50 is less than 5000 nM. For the same compound, the IC50 against PARP-1 [4] lay within 5 to 25 nM.
For `CC[C@H]1CN(C(=O)c2cc(Cc3n[nH]c(=O)c(C)c3C)ccc2F)CC(=O)N1C1CCC1` [Example 181, 6-(3-{[(3S)-4-Cyclobutyl-3-ethyl-5-oxopiperazin-1-yl]carbonyl}-4-fluorobenzyl)-4,5-dimethylpyridazin-3(2H)-one], in that order: less than 5000 nM and 5 to 25 nM.
The matching figures for `Cc1c(Cc2ccc(F)c(C(=O)N3CC(=O)N(C4CCCC4)C(CC(C)C)C3)c2)n[nH]c(=O)c1C` (stereo not drawn) [Example 185, 6-{3-[(4-Cyclopentyl-3-isobutyl-5-oxopiperazin-1-yl)carbonyl]-4-fluorobenzyl}-4,5-dimethylpyridazin-3(2H)-one]: less than 5000 nM and 25 to 150 nM.
The matching figures for `Cc1c(Cc2ccc(F)c(C(=O)N3CC(=O)N(C4CCCC4)[C@H](C(C)C)C3)c2)n[nH]c(=O)c1C` [Example 207, 6-(3-{[(3R)-4-Cyclopentyl-3-isopropyl-5-oxopiperazin-1-yl]carbonyl}-4-fluorobenzyl)-4,5-dimethylpyridazin-3(2H)-one]: less than 5000 nM and 5 to 25 nM.
As to `Cc1c(Cc2ccc(F)c(C(=O)N3CCN(c4ccccc4)C(=O)C3)c2)n[nH]c(=O)c1C` [drawing 25], the midpoint of inhibition at PARP-1 [1], the IC50, lay at 1 nM. Also, the CC50 in assay [2] (setting [5]) stood at 18 nM.
The compound `Cc1c(Cc2ccc(F)c(C(=O)N3CCN(c4ccc(F)cc4)C(=O)C3)c2)n[nH]c(=O)c1C` [drawing 26] showed an IC50 against PARP-1 [1] of 0.87 nM. Also, the CC50 in assay [2] (setting [5]) stood at 96 nM.
For `Cc1c(Cc2ccc(F)c(C(=O)N3CCN(C4CCCCC4)C(=O)C3)c2)n[nH]c(=O)c1C` [drawing 29], in that order: 0.36 nM and 7 nM.
